# Data reported in PMC8838585, “Development and Validation of a Novel HPLC Method to Analyse Metabolic Reaction Products Catalysed by the CYP3A2 Isoform: In Vitro Inhibition of CYP3A2 Enzyme Activity by Aspirin (Drugs Often Used Together in COVID-19 Treatment)” (Molecules, 2022).
# “Also recorded” adds a separate entry of the source.
# T1: CYP3A2 (Rattus norvegicus, UniProt P05183)
# T1 construct: tissue Merck; host or cells: pooled liver microsomes from male Sprague Dawley rats
# T1 sequence (P05183 1-504): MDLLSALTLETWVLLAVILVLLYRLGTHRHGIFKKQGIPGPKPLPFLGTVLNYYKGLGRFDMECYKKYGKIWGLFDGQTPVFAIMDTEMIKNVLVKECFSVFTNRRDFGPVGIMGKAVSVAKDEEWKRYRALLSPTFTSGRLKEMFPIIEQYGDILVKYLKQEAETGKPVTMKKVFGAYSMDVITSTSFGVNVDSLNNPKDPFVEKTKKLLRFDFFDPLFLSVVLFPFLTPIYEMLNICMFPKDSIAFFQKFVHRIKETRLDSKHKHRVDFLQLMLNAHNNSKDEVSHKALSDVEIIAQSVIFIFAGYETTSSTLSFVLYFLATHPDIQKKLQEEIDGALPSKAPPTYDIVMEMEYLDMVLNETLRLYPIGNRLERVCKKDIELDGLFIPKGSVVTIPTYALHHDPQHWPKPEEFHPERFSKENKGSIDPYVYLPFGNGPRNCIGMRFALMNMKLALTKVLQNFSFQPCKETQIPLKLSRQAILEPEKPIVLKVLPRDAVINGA
# Legend:
# [1] = Solution stability of working standards at ambient temperature, intraday and interday, HPLC; format: physicochemical; settings: for Solution stability: intraday and interday analysis
# Experimental: Stability samples were analyzed in triplicate.
# Experiments were performed in triplicate, and the results are summarized below in Table 8.
# CYP3A2 = molecular target: T1, CYP3A2; experiment: Inhibition of dexamethasone 6β-hydroxylation (CYP3A2 activity) by aspirin in rat liver microsomes, HPLC; format: in vitro ADME; settings: for Clint: Vmax/Km; for Vmax: n = 3
# Experimental: Assay development and validation were carried out using a LC-2010A HT Module HPLC system (Shimadzu, Toyko, Japan). […] The chromatographic separation was performed at 25 °C and at a flow rate of 0.6 mL/min. A 10 µL solution volume was injected for HPLC analysis, and all the components were detected at the 243 nm wavelength. Table 11 provides information concerning efficiency (N), where N = 5.54 × (tR/W½) and W½ = width at half peak height; plate height (H), where H(cm) = column length/N; asymmetry factor (AsF), where AsF = B/A, and A is the distance from the leading edge of the peak to the midpoint of the peak measured at 10% of peak height, and B is the distance from the midpoint of the peak to the trailing edge of the peak measured at 10% of the peak height; and resolution (Rs), where Rs = 2∆tR/0.5(W1 + W2), and W is the width at the peak base.
# Ice-cold-grade acetonitrile containing 15 µM 4-hydroxyoctanophenone (as an internal standard) was added to terminate the reaction. […] The polar extracts were evaporated to dryness, and the residues were dissolved in the mobile phase (70% acetonitrile and 30% water, v/v) and made up to 1000 µL in volume. An amount of 10 µL of each sample was injected into the HPLC instrument for analysis.
# Data were analysed using Microsoft Excel 2010 software for validation and the kinetic parameters. All results are shown as mean ± S.D. The least-square regression analysis was performed to calculate the concentration of the metabolite produced by the CYP reaction. Secondary Lineweaver–Burk plots and Michaelis–Menten plots were plotted to find kinetic parameters such as Ki, Vmax, Km, Clint, and α^,. Inhibition was assumed to be competitive based on the obtained data and based on a visual inspection of the Lineweaver–Burk plot. […] Km values were used to calculate the percentage of inhibition.
# [2] = substrate: C[C@@H]1C[C@H]2[C@@H]3CCC4=CC(=O)C=C[C@]4(C)[C@@]3(F)[C@@H](O)C[C@]2(C)[C@@]1(O)C(=O)CO; experiment: cells, lysate or membranes named; settings: other: 0 µM aspirin (no inhibitor), rat liver microsomes 0.5 mg/mL, n = 3; pH 7.4; 37.0 °C
# Experimental: Data were analysed using Microsoft Excel 2010 software for validation and the kinetic parameters. All results are shown as mean ± S.D. The least-square regression analysis was performed to calculate the concentration of the metabolite produced by the CYP reaction. Secondary Lineweaver–Burk plots and Michaelis–Menten plots were plotted to find kinetic parameters such as Ki, Vmax, Km, Clint, and α^,. […] Km values were used to calculate the percentage of inhibition.
# [3] = male, rat, liver microsomes, pH 7.4, probe dexamethasone (6β-hydroxylation), 10, 20, 30, 40 and 50 µM
molecule,measurement,setting,value
"C[C@@H]1C[C@H]2[C@@H]3C[C@@H](O)C4=CC(=O)C=C[C@]4(C)[C@@]3(F)[C@@H](O)C[C@]2(C)[C@@]1(O)C(=O)CO [6β-hydroxydexamethasone, 6β-Hydroxydexamethasone]",% Recovery,"[1]; Interday 1, 0.3 µM",89.49%
same,% Recovery,"[1]; Interday 1, 0.5 µM",92.64%
same,% Recovery,"[1]; Interday 1, 0.85 µM",84.06%
same,% Recovery,"[1]; Interday 2, 0.3 µM",105.46%
same,% Recovery,"[1]; Interday 2, 0.5 µM",94.15%
same,% Recovery,"[1]; Interday 2, 0.85 µM",81.57%
same,% Recovery,"[1]; Interday 3, 0.3 µM",106.90%
same,% Recovery,"[1]; Interday 3, 0.5 µM",92.10%
same,% Recovery,"[1]; Interday 3, 0.85 µM",80.51%
same,% Recovery,"[1]; intraday 0 h, 0.3 µM",98.18%
same,% Recovery,"[1]; intraday 0 h, 0.5 µM",94.82%
same,% Recovery,"[1]; intraday 0 h, 0.85 µM",99.34%
same,% Recovery,"[1]; intraday 5 h, 0.3 µM",97.22%
same,% Recovery,"[1]; intraday 5 h, 0.5 µM",87.58%
same,% Recovery,"[1]; intraday 5 h, 0.85 µM",90.45%
same,% Recovery,"[1]; intraday 10 h, 0.3 µM",88.89%
same,% Recovery,"[1]; intraday 10 h, 0.5 µM",87.75%
same,% Recovery,"[1]; intraday 10 h, 0.85 µM",92.98%
same,Solution stability,[1],stable
"CC(=O)Oc1ccccc1C(=O)O [Aspirin, acetylsalicylic acid]",IC50,CYP3A2,191 µM
same,á,CYP3A2; 50 µM aspirin,1.03 ± 0.01
same,á,CYP3A2; 100 µM aspirin,1.02 ± 0.06
same,á,CYP3A2; 200 µM aspirin,1.04 ± 0.01
same,Mode of inhibition of CYP3A2,"CYP3A2; Lineweaver-Burk plot, rat liver microsomes",competitively inhibits; also recorded: competitive inhibitor
same,Clint,CYP3A2; with 50 µM aspirin,0.0005 ± 4.00 × 10^−6 µM^−2∙min^−1
same,Clint,CYP3A2; with 100 µM aspirin,0.0005 ± 5.00 × 10^−5 µM^−2∙min^−1
same,Clint,CYP3A2; with 200 µM aspirin,0.0004 ± 1.00 × 10^−5 µM^−2∙min^−1
same,Alpha prime (α') values,"CYP3A2; aspirin 50, 100 and 200 µM",greater than 1.0
same,"inhibition at 40 min, 50 µM",CYP3A2; [3],12.4 ± 1.2%
same,"inhibition at 40 min, 100 µM",CYP3A2; [3],23.3 ± 3.3%
same,"inhibition at 40 min, 200 µM",CYP3A2; [3],53.6 ± 1.76%
same,Ki,CYP3A2; read-out: Ki (inhibition constant),95.5 µM
same,Strength of inhibition of CYP3A2 isoform activity,CYP3A2; weak if IC50 more than 50 µM,weak inhibitory effect
same,Vmax,CYP3A2; with 50 µM aspirin,0.0123 ± 1.15 × 10^−4 µM^−1∙min^−1
same,Vmax,CYP3A2; with 100 µM aspirin,0.0127 ± 7.94 × 10^−4 µM^−1∙min^−1
same,Vmax,CYP3A2; with 200 µM aspirin,0.0123 ± 1.73 × 10^−4 µM^−1∙min^−1
C[C@@H]1C[C@H]2[C@@H]3CCC4=CC(=O)C=C[C@]4(C)[C@@]3(F)[C@@H](O)C[C@]2(C)[C@@]1(O)C(=O)CO [Dexamethasone],% Recovery,"[1]; Interday 1, 40 µM",80.04%
same,% Recovery,"[1]; Interday 1, 110 µM",85.81%
same,% Recovery,"[1]; Interday 1, 185 µM",98.26%
same,% Recovery,"[1]; Interday 2, 40 µM",87.31%
same,% Recovery,"[1]; Interday 2, 110 µM",91.30%
same,% Recovery,"[1]; Interday 2, 185 µM",104.78%
same,% Recovery,"[1]; Interday 3, 40 µM",85.29%
same,% Recovery,"[1]; Interday 3, 110 µM",82.36%
same,% Recovery,"[1]; Interday 3, 185 µM",101.20%
same,% Recovery,"[1]; intraday 0 h, 40 µM",88.51%
same,% Recovery,"[1]; intraday 0 h, 110 µM",80.58%
same,% Recovery,"[1]; intraday 0 h, 185 µM",95.66%
same,% Recovery,"[1]; intraday 5 h, 40 µM",80.50%
same,% Recovery,"[1]; intraday 5 h, 110 µM",84.03%
same,% Recovery,"[1]; intraday 5 h, 185 µM",109.49%
same,% Recovery,"[1]; intraday 10 h, 40 µM",80.80%
same,% Recovery,"[1]; intraday 10 h, 110 µM",84.43%
same,% Recovery,"[1]; intraday 10 h, 185 µM",110.03%
same,Solution stability,[1],stable for up to three days
CYP3A2 (Rattus norvegicus) (protein) MDLLSALTLETWVLLAVILVLLYRLGTHRHGIFKKQGIPGPKPLPFLGTVLNYYKGLGRFDMECYKKYGKIWGLFDGQTPVFAIMDTEMIKNVLVKECFSVFTNRRDFGPVGIMGKAVSVAKDEEWKRYRALLSPTFTSGRLKEMFPIIEQYGDILVKYLKQEAETGKPVTMKKVFGAYSMDVITSTSFGVNVDSLNNPKDPFVEKTKKLLRFDFFDPLFLSVVLFPFLTPIYEMLNICMFPKDSIAFFQKFVHRIKETRLDSKHKHRVDFLQLMLNAHNNSKDEVSHKALSDVEIIAQSVIFIFAGYETTSSTLSFVLYFLATHPDIQKKLQEEIDGALPSKAPPTYDIVMEMEYLDMVLNETLRLYPIGNRLERVCKKDIELDGLFIPKGSVVTIPTYALHHDPQHWPKPEEFHPERFSKENKGSIDPYVYLPFGNGPRNCIGMRFALMNMKLALTKVLQNFSFQPCKETQIPLKLSRQAILEPEKPIVLKVLPRDAVINGA,Km,[2],21.23 ± 0.51 µM
